Data reported in paper PMC10817945, “Design of a novel analogue peptide with potent antibiofilm activities against Staphylococcus aureus based upon a sapecin B-derived peptide” (Scientific Reports, 2024).
In brackets after ≈: the same amount, converted by molar mass. Read-outs that look alike come from different tables or passages of the source. Non-standard residues stand in square brackets, D forms with d. Residues, ends and D or L forms follow the SMILES beside them.

Tests used:
S. aureus strains = experiment: Inhibition of bacterial surface attachment (crystal violet); type: cell-based, Staphylococcus aureus
Experimental: To investigate the inhibitory effect of KLK and mKLK peptides on bacterial surface attachment and biofilm formation, the bacterial suspension in TSB with a concentration of 10^7 CFU/ml was prepared from overnight culture. An aliquot of 100 μl of the bacterial suspension was added to wells of 96-well plates containing 100 μl of the peptides solution with concentrations of 1×, 1/2× and 1/4× MIC, resulting in the final peptides concentrations of 1/2×, 1/4× and 1/8× MIC. To investigate the inhibitory effect of the peptides on surface attachment the incubation was performed at 37 °C for 2 h and to evaluate their inhibitory activity on biofilm formation the incubation was performed at 37 °C for 24 h. The wells containing only TSB medium were used as negative controls. After incubation, the contents of the wells were removed and washed three times with PBS and the wells were stained with 200 μl of 0.1% crystal violet for 20 min. The plates were washed again and excess dye was removed. A volume of 200 μl of 95% ethanol was added to each well for 20 min and absorbance was measured at 570 nm by a microplate reader.

S. aureus isolates [1] = type: cell-based, Staphylococcus aureus
Experimental: (§1) Minimum inhibitory concentrations (MIC) of KLK, mKLK, and vancomycin were determined using microdilution broth assay according to clinical and laboratory standards institute (CLSI) guidelines with some modifications. Briefly, overnight cultures were diluted in Muller-Hinton broth (MHB; Merck, Germany) to achieve a final density of 5 × 10^5 CFU/ml. A volume of 100 μl of bacterial suspension was added to wells of sterile 96-well plates containing 100 μl of two-fold peptide dilutions, ranging from 0.25 to 256 µg/ml. Vancomycin was used as a positive control in this assay. […] MBC was determined by removing samples from wells with no visible growth, serially diluting, and plating on Mueller Hinton (MH) agar plates for CFU counting.

S. aureus isolates [2] = experiment: microbe, parasite or virus in culture; type: cell-based, Staphylococcus aureus
Experimental: as §1

[3] = tested on: preformed S. aureus biofilms; type: cell-based, Staphylococcus aureus
Experimental: The eradicative activity of KLK and mKLK peptides against preformed S. aureus biofilms was evaluated by determining MBEC, as previously described. The 24-h biofilms developed in TSB in a 96-well plate were washed three times with 200 μl PBS solution. Concentrations of the peptides ranging from 2 to 1024 µg/ml were prepared. A volume of 100 μl of each concentration was added to a corresponding well, and plates were incubated for 18–20 h at 37 °C. Then, wells were washed with sterile PBS solution, and 100 μl of PBS solution was added. The wells were thoroughly scraped with a sterile pipette tip, vortexed and sonicated to release the biofilm cells from the well surface. Subsequently, 10 μl of well contents were plated on MHA. Colonies were counted after 20 h at 37 °C. The MBEC was defined as the lowest concentration of peptide that inhibited bacterial regrowth.

in vitro = settings: human
Experimental: (§2) The assay was performed using fresh human blood samples containing citrate phosphate dextrose anticoagulant collected from a blood bank (Iranian Blood Transfusion Organization). Human red blood cells (RBC) were centrifuged at 1700×g for 5 min; then the supernatant was removed and the erythrocyte pellet was diluted 1:100 in PBS to obtain a 1% erythrocyte suspension. […] Then, 50 μl of the 1% erythrocyte suspension and 50 μl of the peptides were mixed and added to wells of a 96-well polypropylene conical bottom microplate and incubated at 37 °C for 1 h. Following centrifugation of the samples at 1700×g for 5 min, 50 μl of the supernatant was transferred to wells of a 96-well flat-bottom plate for the absorbance measurement at 405 nm in a microplate reader. Identical volumes of Triton X-100 (1%) and PBS were used as positive and negative controls, respectively. The selectivity indexes (SI) were also determined as a toxicity indicator.

Human red blood cells = experiment: in vitro
Experimental: as §2

[4] = tested on: one MRSA and reference strain (ATCC25923); experiment: Time-kill kinetics assay
Experimental: The peptide-free control was included for each strain. Following incubation at 37 °C for 0, 0.25, 0.5, 1, 2, 4, 5, and 24 h, each sample was serially diluted, plated onto Mueller–Hinton (MH) agar (Merck, Germany) plates and incubated at 37 °C. The viable plate count method was performed after incubation for 24 h and the counts were expressed as Log CFU/ml[44].

Q: Which “crystal violet absorbance at 570 nm, bacterial attachment, Mean±SD” value (from here on “crystal violet absorbance at 570 nm … Mean±SD”) (S. aureus strains; ATCC25923, 1/4MIC, control 2.136±0.01) does the source give for `CC(C)C[C@@H](NC(=O)[C@H](N)Cc1c[nH]c2ccccc12)C(=O)N[C@H](Cc1c[nH]c2ccccc12)C(=O)N[C@H](C)C(=O)N[C@H](CC(C)C)C(=O)N[C@H](CC(C)C)C(=O)N[C@H](CCCCN)C(=O)N[C@H](CC(C)C)C(=O)N[C@H](CC(C)C)C(=O)N[C@H](CCCCN)C(=O)N[C@H](CC(C)C)C(=O)N[C@H](CCCCN)C(N)=O` [mKLK] (H-[dW][dL][dW][dA][dL][dL][dK][dL][dL][dK][dL][dK]-NH2; N-terminus assumed) here?
A: 1.789±0.01

Q: And the “crystal violet absorbance at 570 nm … Mean±SD” value (S. aureus strains; ATCC25923, 1/8MIC, control 2.136±0.01)?
A: 1.952±0.07

Q: What about the “crystal violet absorbance at 570 nm … Mean±SD” value (S. aureus strains; MRSA-1, 1/2MIC, control 1.861±0.02) of the same compound?
A: 1.361±0.03

Q: And the “crystal violet absorbance at 570 nm … Mean±SD” value (S. aureus strains; MRSA-1, 1/4MIC, control 1.861±0.02)?
A: 1.599±0.08

Q: And the “crystal violet absorbance at 570 nm … Mean±SD” value (S. aureus strains; MRSA-1, 1/8MIC, control 1.861±0.02)?
A: 1.723±0.02

Q: What about the “crystal violet absorbance at 570 nm … Mean±SD” value (S. aureus strains; MRSA-2, 1/2MIC, control 2.311±0.005) of the same compound?
A: 1.496±0.01

Q: What about the “crystal violet absorbance at 570 nm … Mean±SD” value (S. aureus strains; MRSA-2, 1/4MIC, control 2.311±0.005) of the same compound?
A: 1.811±0.19

Q: What about the “crystal violet absorbance at 570 nm … Mean±SD” value (S. aureus strains; MRSA-2, 1/8MIC, control 2.311±0.005) of the same compound?
A: 1.906±0.13

Q: And the “crystal violet absorbance at 570 nm … Mean±SD” value (S. aureus strains; MRSA-3, 1/2MIC, control 1.491±0.06)?
A: 0.944±0.07

Q: What about the “crystal violet absorbance at 570 nm … Mean±SD” value (S. aureus strains; MRSA-3, 1/4MIC, control 1.491±0.06) of the same compound?
A: 1.078±0.07

Q: And the “crystal violet absorbance at 570 nm … Mean±SD” value (S. aureus strains; MRSA-3, 1/8MIC, control 1.491±0.06)?
A: 1.119±0.12

Q: What about the “crystal violet absorbance at 570 nm … Mean±SD” value (S. aureus strains; MSSA-1, 1/2MIC, control 2.107±0.08) of the same compound?
A: 1.229±0.07

Q: What about the “crystal violet absorbance at 570 nm … Mean±SD” value (S. aureus strains; MSSA-1, 1/4MIC, control 2.107±0.08) of the same compound?
A: 1.419±0.01

Q: And the “crystal violet absorbance at 570 nm … Mean±SD” value (S. aureus strains; MSSA-1, 1/8MIC, control 2.107±0.08)?
A: 1.592±0.36

Q: And the “crystal violet absorbance at 570 nm … Mean±SD” value (S. aureus strains; MSSA-2, 1/2MIC, control 2.061±0.01)?
A: 1.199±0.09

Q: And the “crystal violet absorbance at 570 nm … Mean±SD” value (S. aureus strains; MSSA-2, 1/8MIC, control 2.061±0.01)?
A: 1.576±0.46

Q: What about the MBC (S. aureus isolates [1]; ATCC25923) of the same compound?
A: 4 µg/mL (≈ 2.62 µM)

Q: What about the MBC (S. aureus isolates [1]; MRSA-1) of the same compound?
A: 8 µg/mL (≈ 5.25 µM)

Q: And the MBC (S. aureus isolates [1]; MRSA-2)?
A: 8 µg/mL (≈ 5.25 µM)

Q: And the MBC (S. aureus isolates [1]; MRSA-3)?
A: 8 µg/mL (≈ 5.25 µM)

Q: And the MBC (S. aureus isolates [1]; MSSA-1)?
A: 4 µg/mL (≈ 2.62 µM)

Q: And the MBC (S. aureus isolates [1]; MSSA-2)?
A: 4 µg/mL (≈ 2.62 µM)

Q: And the MIC (S. aureus isolates [2]; ATCC25923)?
A: 4 µg/mL (≈ 2.62 µM)

Q: And the MIC (S. aureus isolates [2]; MRSA clinical isolates, read-out: MIC)?
A: 8 µg/mL (≈ 5.25 µM)

Q: And the MIC (S. aureus isolates [2]; MRSA-1)?
A: 8 µg/mL (≈ 5.25 µM)

Q: What about the MIC (S. aureus isolates [2]; MRSA-2) of the same compound?
A: 8 µg/mL (≈ 5.25 µM)

Q: And the MIC (S. aureus isolates [2]; MRSA-3)?
A: 8 µg/mL (≈ 5.25 µM)

Q: What about the MIC (S. aureus isolates [2]; MSSA-1) of the same compound?
A: 4 µg/mL (≈ 2.62 µM)

Q: And the MIC (S. aureus isolates [2]; MSSA-2)?
A: 4 µg/mL (≈ 2.62 µM)

Q: What about the MIC (S. aureus isolates [2]; three MRSA isolates) of the same compound?
A: 8 µg/mL (≈ 5.25 µM)

Q: And the MIC (S. aureus isolates [2]; two MSSA isolates)?
A: 4 µg/mL (≈ 2.62 µM)

Q: What about the MBEC ([3]; ATCC25923) of the same compound?
A: 64 µg/mL

Q: And the MBEC ([3]; MRSA-1)?
A: 64 µg/mL

Q: And the MBEC ([3]; MRSA-2)?
A: 128 µg/mL

Q: What about the MBEC ([3]; MRSA-3) of the same compound?
A: 64 µg/mL

Q: And the MBEC ([3]; MSSA-1)?
A: 32 µg/mL

Q: And the MBEC ([3]; MSSA-2)?
A: 32 µg/mL

Q: And the “MBEC, range over isolates” value ([3]; preformed biofilms)?
A: 32 to 128 µg/mL

Q: What about the hemolysis at 1 h, 1.56 µM (in vitro) of the same compound?
A: 0%

Q: What about the hemolysis at 1 h, 3.12 µM (in vitro) of the same compound?
A: 0.3%

Q: What about the hemolysis at 1 h, 6.25 µM (in vitro) of the same compound?
A: 1.8%

Q: And the hemolysis at 1 h, 12.5 µM (in vitro)?
A: 9.3%

Q: And the hemolysis at 1 h, 25 µM (in vitro)?
A: 15.4%

Q: And the hemolysis at 1 h, 50 µM (in vitro)?
A: 36.2%

Q: What about the hemolysis at 1 h, 75 µM (in vitro) of the same compound?
A: 48.2%

Q: What about the hemolysis at 1 h, 100 µM (in vitro) of the same compound?
A: 58.2%

Q: And the hemolysis at 1 h, 150 µM (in vitro)?
A: 62.4%

Q: And the hemolysis at 1 h, 200 µM (in vitro)?
A: 67.1%

Q: And the HC50 (Human red blood cells)?
A: 118.6 µg/mL

Q: What about the HC50 (Human red blood cells; red cells of human, 1 h) of the same compound?
A: 77.8 µM

Q: What about the “time after which no regrowth was observed” value ([4]; ATCC 25923, 1 × MIC (4 μg/ml)) of the same compound?
A: 30 min

Q: What about the “reduction in viable cell count” value ([4]; ATCC 25923, 1 × MIC, during 15 min) of the same compound?
A: ~1 log

Q: And the “time after which no regrowth was observed” value ([4]; ATCC 25923, 2 × MIC (8 μg/ml))?
A: 15 min

Q: What about the “time after which no regrowth was observed” value ([4]; MRSA, 1 × MIC) of the same compound?
A: 240 min

Q: And the “reduction in viable cell count” value ([4]; MRSA, 1 × MIC (8 μg/ml), within 2 h)?
A: 2 log
